Experimental data as given in patent EP3358006A1, “METHOD AND MEDIUM FOR CULTIVATING PRIMARY CELLS IN VITRO” (Mares Ltd., priority 2017, dated 2018).
Read-outs that look alike come from different tables or passages of the source.

What was measured:
Type in all cases: cell-based, human
[1] = tested on: hMSCs; test: Substrate oxidation in 24-well plates (14CO2 production from 14C-labelled substrates); settings: for increase in substrate-oxidation rate between passage 2 and passage 5: normoxic-cultured cells (20% O2); for oxidation rate relative to glucose (fold higher): normoxic-cultured cells, 10mM acetoacetate vs 5.5mM glucose
Procedure: (§1) Cryopreserved cells were thawed, washed with growth medium and seeded at a density of 1 X 10^6 cells per 225cm2 with Dulbecco's Modified Eagle's medium (DMEM) containing 2mM ultra-glutamine, 1g/l glucose, 50µg/ml gentamycin and 10% FBS. Where 3-hydroxybutyrate (3-HB) was included in the growth medium, the concentration was 5mM throughout. Cells were passaged at about 80% confluence. Cells for measurements of glycolysis or oxidation were seeded into 24-well plates at a density of 1 x 10^4 cells per well and used at about 90% confluence. Cells were maintained in either normoxic culture with 20% O2 tension or hypoxic culture with 5% O2 tension in an oxygen-tension controlled incubator. Previous workers have identified 5% O2 as being a physiologically significant level of O2 with respect to in vivo conditions for hMSCs, representing hypoxia (Pattappa et al., 2011).
Cells were incubated for 90 minutes in the presence of a single radiolabelled substrate (with addition of unlabelled substrates where indicated) in DMEM (containing no pyruvate, glucose or glutamine) in a total volume of 0.5 mls. The concentrations of single substrates were: 5.5mM glucose (considered similar to median human blood glucose concentration); 2mM pyruvate (considered higher than endogenous pyruvate concentration from glucose metabolism and sufficient to stimulate activity of pyruvate dehydrogenase plus pyruvate carboxylase); 1mM glutamine (considered similar to human blood glutamine concentrations); 10mM acetoacetate (considered similar to intracellular acetoacetate concentrations produced from maximal blood ketone body concentrations). In addition, substrates incorporated radiolabels as follows: glucose: ^21 MBq/mmol D-U-^14C-glucose; pyruvate: 0.35MBq/mmol 1-^14C-pyruvate; acetoacetate: 0.185MBq/mmol 3-^14C-acetoacetate; glutamine: 1.2 MBq/mmol U-^14C-glutamine. Evolved ^14CO2 was trapped and measured by the method of Collins et al. (1998), except that, after addition of perchloric acid to the wells, plates were gently agitated for 60 minutes to release dissolved ^14CO2. Filter papers containing trapped ^14CO2 were counted in Ecoscint using a Tri-Carb 2800TR Liquid Scintillation Analyser. […] Rates of ATP-production from individual substrates were calculated on the basis of mol/mol production as follows: glucose: 31; glutamine: 20; pyruvate: 12.5; acetoacetate: 20. For calculations of ATP-production from acetoacetate plus pyruvate, separate incubations were performed with ^14C-acetoacetate in the presence of unlabelled pyruvate and with ^14C-pyruvate in the presence of unlabelled acetoacetate. Rates of ATP-production from the labelled substrate were calculated for each condition and the results summed.

[2] = tested on: hMSCs; test: Glycolytic rate in 24-well plates (3H2O production from 5-3H-glucose); settings: p5 vs p2
Procedure: as §1
Glycolysis was measured as the production of ^3H2O from 5-^3H-glucose, which occurs during the step catalysed by enolase. Cells were incubated with 5.5mM glucose containing 17 MBq/mmol 5-^3H-glucose in DMEM without pyruvate, glutamine or glucose for 90 minutes in a total volume of 0.5mls. […] Washing with 2 column volumes of water eluted the ^3H2O which was counted for radioactivity (Tri-Carb 2800TR Liquid Scintillation Analyser).

[3] = tested on: hMSCs; test: Chondrocyte differentiation, collagen accumulation by Sirius red/fast green staining; settings: for activation at 5000 µM: Homo sapiens, Chondrocyte, 504 h, read-out: % increase over controls (chondrocyte differentiation); for Absorbance at 540nm, Chondrocyte-differentiated cells: 21 days; for Absorbance at 540nm, Control cells: no differentiation protocol
Procedure: (§2) Cells at passage 6 were seeded at a density of 2x10^5 (adipogenesis and chondrogenesis) or 3x10^4 (osteogenesis) into wells of a 6 well tissue culture plate. Kits for differentiation along adipogenic, chondrocytic and osteocytic lineages were obtained from Lonza and accompanying protocols followed. Early stage characteristics of differentiation were then assessed. Adipocytes were assayed for fat accumulation after 18 days from the onset of the differentiation protocol. Cells were fixed by incubating for 10 minutes in 10% formalin, followed by 60 minutes in fresh 10% formalin and washing with 60% isopropanol. 5mM Oil red O in 60% isopropanol (filtered), 1ml per well, was added to dry wells and left for 10 minutes before washing four times with water. Oil red O was eluted with 1ml 100% isopropanol per well and the optical density measured at 500nm. Chondrocytes were assayed for collagen accumulation (after 21 days from the onset of the differentiation protocol) using Sirius red/fast green collagen staining kit purchased from Amsbio. Osteocytes were assayed for calcium accumulation (21 days after the onset of the differentiation protocol) by the method of Jager et al, 2005. In each case, values were compared with those of control cells which had been cultured under normal growth conditions without being exposed to differentiation protocols.
Cells were inoculated at a density of 2x10^5 cells/well into 6 well plates and the chondrocyte-differentiation protocol followed (refer to Experimental Procedures for full protocol). After 21 days, cells were fixed with Kahle fixative and stained with Sirius dye. Dye was extracted and the absorbance read at 540nm. n=3 ** p<0.004; *** p<0.0001

[4] = tested on: hMSCs; test: Osteocyte differentiation, Ca2+ accumulation by cresopthalein; settings: for Absorbance at 577nm, Osteocyte-differentiated cells: 21 days; for Absorbance at 577nm, Control cells: no differentiation protocol
Procedure: as §2
Cells were inoculated at a density of 3x10^4 cells/well into 6 well plates and the osteocyte differentiation protocol followed (refer to Experimental Procedures for full protocol). After 21 days, cells were incubated with 0.6M HCl for 24 hours before calcium per well was measured by complexing with cresopthalein and measuring absorbance at 577nm. C: Absorbance at 540nm for cells treated with Sirius red/fast green dye to measure collagen accumulation.

[5] = tested on: hMSCs; test: Adipocyte differentiation, fat accumulation by oil red O staining; settings: for Absorbance of eluate at 500nm, Adipocyte-differentiated cells: 18 days; for Absorbance of eluate at 500nm, Control cells: no differentiation protocol
Procedure: as §2
Cells were inoculated at a density of 2x10^5 cells/well into 6 well plates and the adipocyte differentiation protocol followed (refer to Experimental Procedures for full protocol). After 18 days, medium was removed from wells and cells stained with oil red O. The dye was eluted from the cells and the absorbance of the eluate read at 500 nm. B: Absorbance at 577nm for cells treated with cresopthalein to measure Ca2+ accumulation.

[6] = tested on: hMSCs; test: cells; settings: for ROS generated per mole of substrate oxidised: 90 minutes incubation with 5.5mM glucose or 10mM acetoacetate, normoxic-cultured cells, passage 5; for fold induction at 20 µM: Homo sapiens, 24 h, 24h pre-incubation with 20µM genipin, passage 5, normoxic
Procedure: Cells were incubated under appropriate conditions in 24-well plates in a total volume of 0.2ml for 90 minutes. At 90 minutes, ROS were assayed using an Oxiselect Amplex Red kit from Cell Biolabs, Inc., according to the manufacturer's instructions. Where genipin was used, cells were pre-incubated for 24 hours with 20 µM genipin.

[7] = tested on: hMSCs; test: Calculated rates of ATP-production from substrate oxidation and glycolysis; settings: full oxidation assumed; passage 2, normoxic-cultured cells
Procedure: Cells were incubated for 90 minutes in the presence of a single radiolabelled substrate (with addition of unlabelled substrates where indicated) in DMEM (containing no pyruvate, glucose or glutamine) in a total volume of 0.5 mls. […] Evolved ^14CO2 was trapped and measured by the method of Collins et al. (1998), except that, after addition of perchloric acid to the wells, plates were gently agitated for 60 minutes to release dissolved ^14CO2. Filter papers containing trapped ^14CO2 were counted in Ecoscint using a Tri-Carb 2800TR Liquid Scintillation Analyser. […] Rates of ATP-production from individual substrates were calculated on the basis of mol/mol production as follows: glucose: 31; glutamine: 20; pyruvate: 12.5; acetoacetate: 20. […] Rates of ATP-production from the labelled substrate were calculated for each condition and the results summed.
ATP-yields were calculated from the following values, as follows: from glycolysis of glucose, it is assumed that 2 moles ATP will be produced per mole glucose glycolysed. […]

[8] = normoxic cells cultured with 5mM 3-HB from passages 1 to 5

Question: `CC(O)CC(=O)O` (stereo not drawn) [3-HB, 3-hydroxybutyrate] was tested. Which “increase in glucose oxidation rate at passage 5” value [1, 8] did it give?
Answer: The value was 7.5 fold.

Question: And the “reduction of acetoacetate oxidation rate at passage 5” value [1, 8]?
Answer: The value was 1.3 fold.

Question: What about the “decrease in glycolytic rates by passage 5” value ([2]; cells cultured under hypoxia with 5mM 3-HB) of the same compound?
Answer: Its value is 1.5 fold.

Question: And the “increase in glycolytic rate at p5” value ([2]; normoxic cells cultured with 5mM 3-HB)?
Answer: Its value is 1.4 fold.

Question: What about the activation at 5000 µM ([3]; Hypoxia + 5mM 3-HB) of the same compound?
Answer: Its activation at 5000 µM is 45%.

Question: What about the activation at 5000 µM ([3]; Normoxia + 5mM 3-HB) of the same compound?
Answer: The activation at 5000 µM was 178%.

Question: What about the “Absorbance at 540nm, Chondrocyte-differentiated cells” value ([3]; Hypoxia + 5mM 3-HB) of the same compound?
Answer: Its value is “** 0.806 ± 0.024”.

Question: What about the “Absorbance at 540nm, Control cells” value ([3]; Hypoxia + 5mM 3-HB) of the same compound?
Answer: Its value is 0.556 ± 0.008.

Question: What about the “Absorbance at 540nm, Chondrocyte-differentiated cells” value ([3]; Normoxia + 5mM 3-HB) of the same compound?
Answer: The value was “*** 0.887 ± 0.020”.

Question: What about the “Absorbance at 540nm, Control cells” value ([3]; Normoxia + 5mM 3-HB) of the same compound?
Answer: The value was 0.319 ± 0.004.

Question: What about the “% increase over control (osteocyte differentiation)” value ([4]; Hypoxia + 5mM 3-HB) of the same compound?
Answer: The value was 36%.

Question: And the “Absorbance at 577nm, Osteocyte-differentiated cells” value ([4]; Hypoxia + 5mM 3-HB)?
Answer: The value was “*** 0.495 ± 0.007”.

Question: And the “Absorbance at 577nm, Control cells” value ([4]; Hypoxia + 5mM 3-HB)?
Answer: Its value is 0.363 ± 0.003.

Question: And the “% increase over control (osteocyte differentiation)” value ([4]; Normoxia + 5mM 3-HB)?
Answer: The value was 21%.

Question: What about the “Absorbance at 577nm, Osteocyte-differentiated cells” value ([4]; Normoxia + 5mM 3-HB) of the same compound?
Answer: Its value is “*** 0.375 ± 0.003”.

Question: And the “Absorbance at 577nm, Control cells” value ([4]; Normoxia + 5mM 3-HB)?
Answer: Its value is 0.310 ± 0.001.

Question: What about the “% increase over control (adipocyte differentiation)” value ([5]; Hypoxia + 5mM 3-HB) of the same compound?
Answer: The value was 27%.

Question: And the “Absorbance of eluate at 500nm, Adipocyte-differentiated cells” value ([5]; Hypoxia + 5mM 3-HB)?
Answer: The value was “*** 0.727 ± 0.001”.

Question: And the “Absorbance of eluate at 500nm, Control cells” value ([5]; Hypoxia + 5mM 3-HB)?
Answer: The value was 0.570 ± 0.001.

Question: And the “% increase over control (adipocyte differentiation)” value ([5]; Normoxia + 5mM 3-HB)?
Answer: Its value is 34%.

Question: And the “Absorbance of eluate at 500nm, Adipocyte-differentiated cells” value ([5]; Normoxia + 5mM 3-HB)?
Answer: The value was “*** 0.698 ±0.005”.

Question: And the “Absorbance of eluate at 500nm, Control cells” value ([5]; Normoxia + 5mM 3-HB)?
Answer: The value was 0.520 ± 0.006.

Question: With `CC(=O)CC(=O)O` [acetoacetate] as the compound, how does the “increase in substrate-oxidation rate between passage 2 and passage 5” value [1] read?
Answer: Its value is 3.5 fold.

Question: What about the “oxidation rate relative to glucose (fold higher)” value ([1]; passage 2) of the same compound?
Answer: The value was 25 fold.

Question: And the “oxidation rate relative to glucose (fold higher)” value ([1]; passage 5)?
Answer: The value was 42 fold.

Question: What about the “ROS generated per mole of substrate oxidised” value [6] of the same compound?
Answer: Its value is 0.0017 moles of ROS.

Question: And the “difference in ROS generation per mole substrate oxidised, compared with glucose” value ([6]; acetoacetate lower than glucose)?
Answer: Its value is 4.5 fold.

Question: Which results are given for `OC[C@H]1OC(O)[C@H](O)[C@@H](O)[C@@H]1O` (stereo partly drawn) [glucose, reference compound]?
Answer: reduction of rate of acetoacetate-oxidation by added substrate ([1]; 10mM acetoacetate plus unlabelled 5.5mM glucose, passage 2, normoxic-cultured cells): more than 3 fold; increase in substrate-oxidation rate between passage 2 and passage 5 [1]: 2 fold; ROS generated per mole of substrate oxidised [6]: 0.076 moles of ROS; ATP produced compared with acetoacetate alone (times less) [7]: 16 times less

Question: What does the source list for `COC(=O)C1=CO[C@@H](O)[C@@H]2C(CO)=CC[C@H]12` [genipin]?
Answer: fold induction at 20 µM ([6]; read-out: increase in ROS-production, acetoacetate substrate (10mM)): 2; fold induction at 20 µM ([6]; read-out: increase in ROS-production, glucose substrate (5.5mM)): 1.6

Question: For `NC(=O)CC[C@H](N)C(=O)O` [glutamine, reference compound], which “increase in substrate-oxidation rate between passage 2 and passage 5” value [1] is on record?
Answer: The value was “not significantly different”.

Question: And the “ATP produced compared with acetoacetate alone (times less)” value [7]?
Answer: Its value is 33 times less.

Question: With `O=C(O)CC(O)C(=O)O` (stereo not drawn) [malate, reference compound] as the compound, how does the “effect of added substrate on rates of pyruvate oxidation” value ([1]; data not shown) read?
Answer: Its value is “no significant effect”.
